Data on 3 compounds can be found in patent publication US5776718A, “Reversible protease inhibitors” (Arris Pharmaceutical Corporation, priority 1996, dated 1998).

The target of experiment [1] is cathepsin B (Homo sapiens, UniProt P07858). Description: Inhibition of cathepsin B, fluorogenic substrate Z-Arg-Arg-AMC. The experiment is classed as biochemical. The note with it: 50 mM phosphate, pH 6.0, 2.5 mM EDTA, 2.5 mM DTT; Dixon plot; read-out: cathepsin B (Ki μM). How it is done:
The assay at 250 was started by the addition of cat B (final concentration approx 10 nM) and the increase in fluorescence at 450 nm with excitation at 380 nm was followed over 2 min. The depression in the rate of substrate hydrolysis following addition of varying concentrations of inhibitors was noted. The assay was linear throughout the range observed. Duplicate runs were measured.
(§1) The respective Ki values were estimated by using the Dixon plot as described by Irwin Segel in Enzyme Kinetics: Behavior and analysis of rapid equilibrium and steady-state enzyme systems, 1975, Wiley-lnterscience Publication, John Wiley & Sons, New York.

Experiment [2] addresses cathepsin S (Homo sapiens, UniProt P25774). Description: Inhibition of cathepsin S, fluorogenic substrate Z-Val-Val-Arg-AMC. The following applies: 50 mM phosphate, pH 6.5, 2.5 mM EDTA, 2.5 mM DTT; Dixon plot. The experiment is classed as biochemical. How it is done:
The assay at 250 was started by the addition of cat S (final concentration approx […]) and the increase in fluorescence at 450 nm with excitation at 380 nm was followed over 2 min. The depression in the rate of substrate hydrolysis following addition of varying concentrations of inhibitors was noted. The assay was linear throughout the range observed. Duplicate runs were measured.
as §1

Experiment [3] addresses cathepsin L (Homo sapiens, UniProt P07711). Description: Inhibition of cathepsin L, fluorogenic substrate Z-Phe-Arg-AMC. It is filed as biochemical. The note with it: 50 mM acetate, pH 5.5, 2.5 mM EDTA, 2.5 mM DTT; Dixon plot; read-out: cathepsin L (Ki μM). How it is done: (§2) Conditions for cathepsin L: 50 mM acetate, pH 5.5, 2.5 mM EDTA, 2.5 mM DTT. substrate: [Z-Phe-Arg-AMC]=[…] (Km=2 mM). The assay at 25^0 was started by the addition of cat L (final concentration approx 1 nM) and the increase in fluorescence at 450 nm with excitation at 380 nm was followed over 2 min. The depression in the rate of substrate hydrolysis following addition of varying concentrations of inhibitors was noted. The assay was linear throughout the range observed. Duplicate runs were measured.
as §1

In experiment [4] the target is cruzain (Trypanosoma cruzi, UniProt P25779). The experiment can be described thus: Inhibition of cruzain (conditions as for cathepsin L). It is filed as biochemical, T. cruzi. The following applies: 50 mM acetate, pH 5.5, 2.5 mM EDTA, 2.5 mM DTT; Km 1 mM; Dixon plot; read-out: cruzain (Ki μM). How it is done: as §2
Conditions for cruzain were the same as for cathepsin L with the exception that the Km for the substrate was 1 mM.
as §1

cruzain, sequence (P25779 123-467): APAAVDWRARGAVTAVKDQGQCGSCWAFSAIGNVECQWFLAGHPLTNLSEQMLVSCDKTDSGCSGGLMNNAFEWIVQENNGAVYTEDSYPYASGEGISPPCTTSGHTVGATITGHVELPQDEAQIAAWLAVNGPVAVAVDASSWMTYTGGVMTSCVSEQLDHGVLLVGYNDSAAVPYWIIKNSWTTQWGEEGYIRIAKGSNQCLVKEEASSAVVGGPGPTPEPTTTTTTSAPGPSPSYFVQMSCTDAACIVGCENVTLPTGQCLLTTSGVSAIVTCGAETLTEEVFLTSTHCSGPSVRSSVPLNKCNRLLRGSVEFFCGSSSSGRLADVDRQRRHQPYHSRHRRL
cathepsin S, sequence (P25774 115-331, species assumed): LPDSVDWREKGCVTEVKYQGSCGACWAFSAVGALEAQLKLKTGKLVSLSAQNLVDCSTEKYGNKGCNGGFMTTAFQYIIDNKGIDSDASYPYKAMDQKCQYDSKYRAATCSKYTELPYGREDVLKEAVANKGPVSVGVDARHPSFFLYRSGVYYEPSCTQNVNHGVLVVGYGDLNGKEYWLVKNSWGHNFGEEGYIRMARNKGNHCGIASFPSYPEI
cathepsin L, sequence (P07711 114-333, species assumed): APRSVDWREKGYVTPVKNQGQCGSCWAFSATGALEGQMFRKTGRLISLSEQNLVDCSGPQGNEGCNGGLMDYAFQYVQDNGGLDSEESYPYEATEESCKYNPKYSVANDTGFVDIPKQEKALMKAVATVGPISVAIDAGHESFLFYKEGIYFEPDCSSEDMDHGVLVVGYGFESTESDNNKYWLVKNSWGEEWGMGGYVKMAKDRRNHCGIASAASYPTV

On to `CC(C)C[C@H](NC(=O)N1CCOCC1)C(=O)NC(CCc1ccccc1)S(=O)(=O)c1ccccc1` (stereo partly drawn) [Mu--Leu--HphαSO2 Ph, N^2-(4-morpholinylcarbonyl)-N^1-(3-phenyl-1-phenylsulfonylpropyl)-L-leucinamide], for which the Ki in experiment [1] was 16 µM; in experiment [2], 1.6 µM; in experiment [3], 1.3 µM; in experiment [4], 0.27 µM.
Turning to `O=C(NC(CCc1ccccc1)S(=O)(=O)c1ccccc1)[C@H](Cc1ccccc1)NC(=O)N1CCOCC1` (stereo partly drawn) [Mu--Phe--(DL)HphαSO2 Ph, N^2-(4-morpholinylcarbonyl)-N^1-(3-phenyl-1-phenylsulfonylpropyl)-L-phenylalaninamide], the Ki worked out at 3000 µM in experiment [1], 5 µM in experiment [2], 13 µM in experiment [3] and 15 µM in experiment [4].
For `O=C(NC(CCc1ccccc1)S(=O)(=O)CF)[C@H](Cc1ccccc1)NC(=O)N1CCOCC1` (stereo partly drawn) [Mu--Phe--HphαSO2 CH2 F, N^2-(4-morpholinylcarbonyl)-N^1-(3-phenyl-1-fluoromethylsulfonylpropyl)-L-phenylalaninamide], the inhibition constant (Ki) in experiment [1] is 170 µM; in experiment [2], 2.8 µM; in experiment [3] it was 1.5 µM; in experiment [4], 2 µM.
